According to article PMC13022382, “A high-affinity split-HaloTag for live-cell protein labeling” (Nature Communications, 2026):
pEC50, pKd: −log10 of the molar value. Residues, ends and D or L forms follow the SMILES beside them. *: point of attachment. Biotin = O=C1N[C@H]2[C@H](CS[C@H]2CCCCC(=O)*)N1

What was measured:
[1] = target: cpHaloΔ3-TMR; experiment: Bio-layer interferometry binding kinetics, biotin-Hpep with cpHaloΔ3-TMR; conditions: BLI, 25 °C, 1:1 global fit; for pKd: biotin-Hpep 50 nM immobilised, cpHalo∆3-TMR 300–2 nM; for koff / kon: biotin-Hpep, cpHalo∆3-TMR
Procedure: (§1) After incubation, Hpep1 was removed by IMAC purification on a gravity flow column and buffer was exchanged to activity buffer using Amicon Ultra-15 Centrifugal Filter Unit. The protein labeling was verified by SDS-PAGE, comparing Coomassie blue staining and in-gel fluorescence (Supplementary Fig. 19). Protein labeling and Hpep1 removal were further verified by HRMS as previously explained.
(§2) Bio-layer interferometry (BLI) analysis was performed in a 96-well plate using an Octet® R4 system (Sartorius) with an acquisition rate for standard kinetics of 5.0 Hz at 25 °C. […] The raw data was analyzed using Octet® Analysis Studio (Sartorius). For data correction, response curves were baseline-aligned by subtracting the average signal of the baseline step and Savitzky–Golay filtering was used to remove high-frequency noise from the data.

[2] = target: cpHaloΔ3-SiR; experiment: Bio-layer interferometry binding kinetics, biotin-Hpep with cpHaloΔ3-SiR; conditions: BLI, 25 °C, 1:1 global fit; for pKd: biotin-Hpep 50 nM immobilised, cpHalo∆3-SiR 300–2 nM; for koff / kon: biotin-Hpep, cpHalo∆3-SiR
Procedure: as §1, §2

[3] = tested on: cpHaloΔ; parameters: method as in 2 sources, one per row (each row's own in cited_ref): ref 4 (Huppertz et al., Science 2024) ||| ref PhD thesis of Jonas Wilhelm; conditions: CA-TMR labeling kinetics, TEVp-cleaved cpHalo∆; 500 nM cpHaloΔ protein, 100 nM CA-TMR (EC50 >1 μM); ref 4 (Huppertz et al., Science 2024); read-out: EC50 for the parental cpHalo∆; cited from earlier work
cpHaloΔ, sequence (P0A3G2 4-141 L47V/S58T/D78G/Y87F/L88M/C128F): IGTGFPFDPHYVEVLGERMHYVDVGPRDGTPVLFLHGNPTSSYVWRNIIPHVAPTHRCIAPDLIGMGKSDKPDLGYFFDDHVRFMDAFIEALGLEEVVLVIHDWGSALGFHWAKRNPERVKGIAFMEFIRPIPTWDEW
cpHaloΔ, sequence (P0A3G2 156-290 E160K/A167V/A172T/K175M/C176G/K195N/A224E/N227D/E257K/T264A/H272N/Y273L): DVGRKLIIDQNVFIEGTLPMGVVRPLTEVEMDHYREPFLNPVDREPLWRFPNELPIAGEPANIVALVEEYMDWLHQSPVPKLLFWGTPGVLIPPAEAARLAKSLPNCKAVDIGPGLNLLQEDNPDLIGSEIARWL

CSCC[C@H](NC(=O)[C@H](CCC(=O)O)NC(=O)[C@H](CCCNC(=N)N)NC(=O)[C@H](Cc1c[nH]c2ccccc12)NC(=O)[C@H](CC(=O)O)NC(=O)[C@H](CCCNC(=N)N)NC(=O)[C@H](CCCCN)NC(=O)[C@H](CO)NC(=O)CCCC[C@@H]1SC[C@@H]2NC(=O)N[C@@H]21)C(=O)N[C@@H](Cc1ccccc1)C(=O)N[C@@H](CCCNC(=N)N)C(=O)N[C@@H](CC(C)C)C(=O)N[C@@H](Cc1ccccc1)C(=O)N[C@@H](CCCNC(=N)N)C(=O)N[C@H](C(=O)O)[C@@H](C)O [biotin-Hpep11] (Biotin-SKRDWREMFRLFRT-OH)
pKd [1]: 7.97
koff [1]: 0.000687 s⁻¹
kon [1]: 64900 M⁻¹ s⁻¹
pKd [2]: 8.37
koff [2]: 0.000214 s⁻¹
kon [2]: 50000 M⁻¹ s⁻¹

WKEEVIKAFKLFRD [Hpep4, previously reported split-HaloTag peptide, […]]
pEC50 [3]: 4.68

WRETFQLFRT [Hpep6, previously reported split-HaloTag peptide, […]]
pEC50 [3]: 5.62

AREMFQAFRT [Hpep2, previously reported split-HaloTag peptide, […]]
pEC50 [3]: 2.95

CSCC[C@H](NC(=O)[C@H](CCC(=O)O)NC(=O)[C@H](CCCNC(=N)N)NC(=O)[C@H](Cc1c[nH]c2ccccc12)NC(=O)[C@H](CO)NC(=O)[C@H](Cc1c[nH]c2ccccc12)NC(=O)CNC(=O)[C@H](CCCNC(=N)N)NC(=O)CCCC[C@@H]1SC[C@@H]2NC(=O)N[C@@H]21)C(=O)N[C@@H](Cc1ccccc1)C(=O)N[C@@H](CCCNC(=N)N)C(=O)N[C@@H](CC(C)C)C(=O)N[C@@H](Cc1ccccc1)C(=O)N[C@@H](CCCNC(=N)N)C(=O)N[C@H](C(=O)O)[C@@H](C)O [biotin-Hpep9] (Biotin-RGWSWREMFRLFRT-OH)
pKd [1]: 8.31
koff [1]: 0.00104 s⁻¹
kon [1]: 214000 M⁻¹ s⁻¹
pKd [2]: 7.73
koff [2]: 0.00149 s⁻¹
kon [2]: 78900 M⁻¹ s⁻¹

SKRDAREMFQAFRT [Hpep3, previously reported split-HaloTag peptide, […]]
pEC50 [3]: 3.83

ARETFQAFRT [Hpep1, previously reported split-HaloTag peptide, […]]
pEC50 [3]: 2.53

WREEVRKAFKLFRQ [Hpep5, previously reported split-HaloTag peptide, […]]
pEC50 [3]: 4.97
